Test systems include SK-MEL-2; A549; M14; K562; CAKI-1; RXF 393; KM-20L2; SF-539; SK-MEL-28; SNB-75; NCI-H460; LOX IMVI; SF-268; SK-MEL-5; BT-549; Hs-578T; DU-145; MDA-N; MDA-MB-435; PC-3.
What all share (test): NCI anticancer screen, dose series, 48 h

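Cells were grown in 96-well plates and exposed to each compound for 48 hours at five concentrations; endpoints were interpolated linearly between bracketing concentrations, or set to the highest concentration if not reached. GI50 marks 50% less growth.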 Activity calls are given as the source filed them. Rule as the data show it: active = GI50 up to about 1.1 µM and inactive = higher.

`CC(C)(C)c1cc2c3c(c1)c(=O)c1cccc4c(O)c5cccc(c2=O)c5c-3c41`: the GI50 in the test on SK-MEL-2 was 24.7 µM (inactive); with A549 it was > 100 µM (inactive); in the test with M14, 40.7 µM (inactive); in the test with K562, 38.5 µM (inactive); in the test on CAKI-1, > 100 µM (inactive); in the test with RXF 393 it was 34 µM (inactive). For the same molecule, the GI50 in the test on KM-20L2 is 33.2 µM (inactive); in the test with SF-539, 10 µM (inactive); in the test with SK-MEL-28 it was 10 µM (inactive); with SNB-75 it was > 100 µM (inactive); with NCI-H460 it was 54.1 µM (inactive); in the test with LOX IMVI, 41.2 µM (inactive). In addition, the GI50 in the test with SF-268 is > 100 µM (inactive).
Take `COc1cccc(/C(Cl)=C(\C=O)c2cccc(OC)c2)c1`: the GI50 with SK-MEL-2 was 15.4 µM (inactive); with SK-MEL-5 it was 11.5 µM (inactive); with A549 it was 12.1 µM (inactive); in the test with M14, 13.1 µM (inactive); in the test on K562, 4.06 µM (inactive); with CAKI-1, 39 µM (inactive). For the same molecule, the GI50 in the test with RXF 393 is 5.12 µM (inactive); with KM-20L2 it was 20.9 µM (inactive); in the test on SF-539, 17.4 µM (inactive); in the test on SK-MEL-28, 11.7 µM (inactive); in the test with SNB-75, 8.24 µM (inactive); in the test on NCI-H460 it was 12.7 µM (inactive). Also, the GI50 with LOX IMVI is 6.71 µM (inactive); in the test on SF-268, 3.88 µM (inactive).
In the case of `COC(=O)[C@@]12C3=NO[C@]1(C(=O)OC)C(O[Si](C)(C)C(C)(C)C)[C@@H](OC(C)=O)[C@@H](OC(C)=O)[C@@H]2[C@@H](OCc1ccccc1)CC3` (stereo partly drawn), the GI50 is 8.26 µM (inactive) in the test on SK-MEL-2; 4.16 µM (inactive) in the test with SK-MEL-5; 28.3 µM (inactive) in the test with A549; > 100 µM (inactive) with M14; 5.26 µM (inactive) with K562; 3.8 µM (inactive) with CAKI-1. For the same molecule, the GI50 in the test on RXF 393 is 3.06 µM (inactive); with KM-20L2, > 100 µM (inactive); in the test with SF-539 it was > 100 µM (inactive); in the test with SK-MEL-28, > 23.8 µM (inactive); with SNB-75, 8.63 µM (inactive); in the test with NCI-H460 it was 3.59 µM (inactive). Besides, the GI50 with LOX IMVI is 8.81 µM (inactive); in the test on SF-268, 5.79 µM (inactive).
As to `FC(F)(F)c1nc(-c2ccccc2)oc1Sc1nnc(Sc2oc(-c3ccccc3)nc2C(F)(F)F)s1`, the GI50 is 86.7 µM (inactive) in the test on SK-MEL-2; 14.4 µM (inactive) with SK-MEL-5; > 100 µM (inactive) in the test with A549; 14.2 µM (inactive) in the test on M14; 24 µM (inactive) in the test on K562; 30.1 µM (inactive) in the test on CAKI-1. The GI50 in the test on RXF 393 was 21.1 µM (inactive); with KM-20L2, > 100 µM (inactive); in the test on SF-539, > 69.8 µM (inactive); with SK-MEL-28, > 55.3 µM (inactive); in the test with SNB-75 it was 37.8 µM (inactive); in the test on NCI-H460, > 100 µM (inactive). Also, the results for the GI50 with LOX IMVI and in the test with SF-268 were 10.4 µM (inactive) and 58.9 µM (inactive), respectively.
For `O=C1c2cccc3cccc(c23)C(=O)N1CCCN1CCN(CCCN2C(=O)c3cccc4cccc(c34)C2=O)CC1`, the GI50 with SK-MEL-2, with SK-MEL-5, with A549, in the test with M14, with K562 and in the test with CAKI-1 was > 100 µM (inactive) each time. Besides, the GI50 with RXF 393, with KM-20L2, in the test on SF-539, in the test with SNB-75, with NCI-H460 and in the test with LOX IMVI was > 100 µM (inactive) each time.
Turning to `NNC(=O)C(=O)NN=C(C(Cl)(Cl)CO)C(Cl)(Cl)CO`, the GI50 in the test with SK-MEL-2 is 22.1 µM (inactive); in the test on SK-MEL-5 it was 40.4 µM (inactive); with A549, > 100 µM (inactive); in the test on M14, 24.4 µM (inactive); with K562 it was 36.7 µM (inactive); in the test on CAKI-1, 26.9 µM (inactive). Also, the GI50 in the test with RXF 393 is 21.9 µM (inactive); in the test on KM-20L2 it was 44.5 µM (inactive); in the test on SF-539, 25.2 µM (inactive); in the test with SK-MEL-28, 25.6 µM (inactive); with SNB-75, 32.5 µM (inactive); in the test with NCI-H460, 44.9 µM (inactive). The GI50 in the test on LOX IMVI is 16.9 µM (inactive); in the test on SF-268, 36.4 µM (inactive).
Take `[N-]=[N+]=Nc1ccc(S(=O)(=O)Oc2cc(OS(=O)(=O)c3ccc(N=[N+]=[N-])cc3)cc(OS(=O)(=O)c3ccc(N=[N+]=[N-])cc3)c2)cc1`: the GI50 with SK-MEL-2 was > 100 µM (inactive); with SK-MEL-5, > 100 µM (inactive); in the test with A549, > 100 µM (inactive); with M14, > 100 µM (inactive); with K562, > 100 µM (inactive); with CAKI-1 it was > 10 µM (inactive). Besides, the GI50 in the test on RXF 393 is > 100 µM (inactive); with KM-20L2, > 100 µM (inactive); with SF-539 it was > 100 µM (inactive); in the test on SK-MEL-28 it was > 100 µM (inactive); in the test with SNB-75, > 10 µM (inactive); in the test on NCI-H460, > 100 µM (inactive). The GI50 in the test on LOX IMVI and in the test with SF-268 was > 100 µM (inactive) throughout.
As to `O=c1/c(=C/c2ccccc2[N+](=O)[O-])sc2nnc(-c3ccco3)n12`, the GI50 was 15.8 µM (inactive) in the test with SK-MEL-2; 19.1 µM (inactive) in the test on SK-MEL-5; 19.8 µM (inactive) in the test with A549; 18 µM (inactive) in the test with M14; 50.9 µM (inactive) with K562; 39.7 µM (inactive) in the test on CAKI-1. Moreover, the GI50 in the test on RXF 393 was 16.8 µM (inactive); in the test on KM-20L2, 91 µM (inactive); in the test with SF-539 it was 18.7 µM (inactive); in the test on SK-MEL-28, 21.8 µM (inactive); in the test with SNB-75, 25.8 µM (inactive); with NCI-H460, 25.2 µM (inactive). Besides, the GI50 with LOX IMVI was 16.9 µM (inactive); in the test on SF-268, 20.1 µM (inactive).
For the molecule `COc1cc(/C=C/c2ccc(Br)cc2)cc(OC)c1OC`, the GI50 in the test with SK-MEL-2 is 14.6 µM (inactive); in the test on SK-MEL-5 it was 5.9 µM (inactive); in the test with A549, 11.7 µM (inactive); with M14, 14.4 µM (inactive); in the test with K562, 3.71 µM (inactive); in the test on CAKI-1, 6.24 µM (inactive). For the same molecule, the GI50 is 15.7 µM (inactive) in the test on RXF 393; 7.13 µM (inactive) with KM-20L2; 11.4 µM (inactive) in the test with SF-539; 6.21 µM (inactive) in the test on SK-MEL-28; 8.38 µM (inactive) in the test with SNB-75; 11.6 µM (inactive) with NCI-H460. The figures for the GI50 with LOX IMVI and with SF-268 were 14.1 µM (inactive) and 9.12 µM (inactive), respectively.
With `COc1c(O)c2ccccc2c2cc(O)ccc12`, the GI50 with SK-MEL-2 was 4.79 µM (inactive); in the test on SK-MEL-5, 2.17 µM (inactive); with A549 it was 8.65 µM (inactive); in the test with BT-549 it was 2.43 µM (inactive); with M14, 3.64 µM (inactive); in the test with K562, 2.72 µM (inactive). Further, the GI50 in the test with Hs-578T was 17.4 µM (inactive); in the test on CAKI-1, 11.2 µM (inactive); with DU-145, 8.22 µM (inactive); in the test with MDA-N it was 1.08 µM (active); in the test with RXF 393, 9.93 µM (inactive); in the test on MDA-MB-435, 1 µM (active). Further, the GI50 in the test with PC-3 is 16.6 µM (inactive); in the test on KM-20L2, 22.5 µM (inactive); in the test on SF-539 it was 3.69 µM (inactive); in the test with SK-MEL-28 it was 4.91 µM (inactive); in the test with SNB-75, 8.17 µM (inactive); with NCI-H460, 7.69 µM (inactive). For the same molecule, the GI50 in the test on LOX IMVI was 2 µM (inactive); with SF-268, 10.8 µM (inactive).
